Results published in ChEMBL document CHEMBL1212897 (J Med Chem, 2010).

Biological target: T1, Estrogen receptor (Homo sapiens, UniProt P03372)
T1 sequence (P03372 whole entry): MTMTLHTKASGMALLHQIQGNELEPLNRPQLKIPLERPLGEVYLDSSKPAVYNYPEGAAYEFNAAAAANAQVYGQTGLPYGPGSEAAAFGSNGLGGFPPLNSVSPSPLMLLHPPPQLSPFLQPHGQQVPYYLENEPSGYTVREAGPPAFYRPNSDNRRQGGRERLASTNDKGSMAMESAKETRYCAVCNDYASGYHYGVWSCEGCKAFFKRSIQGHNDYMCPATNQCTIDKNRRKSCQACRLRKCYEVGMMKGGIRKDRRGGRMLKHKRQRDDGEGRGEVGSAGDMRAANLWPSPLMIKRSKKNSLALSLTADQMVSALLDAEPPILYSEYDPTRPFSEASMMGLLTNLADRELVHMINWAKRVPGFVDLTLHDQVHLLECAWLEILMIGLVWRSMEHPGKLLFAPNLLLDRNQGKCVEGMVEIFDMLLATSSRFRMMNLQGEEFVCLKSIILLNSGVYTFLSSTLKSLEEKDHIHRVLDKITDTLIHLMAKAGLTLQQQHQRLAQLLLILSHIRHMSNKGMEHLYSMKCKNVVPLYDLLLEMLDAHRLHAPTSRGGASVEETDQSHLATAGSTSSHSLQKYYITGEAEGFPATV
Assay: Antagonist activity at estrogen receptor
Type: functional
Details: not given

IC50 | Structure (SMILES)
> 10 µM | COc1cc(C2=NN(c3ccc(C#N)c(Cl)c3)[C@@H](C3CCCC3)C2)ccc1C(=O)O
> 10 µM | COC(=O)[C@@H]1CC2=CC(=O)CC[C@]2(C)[C@@]23O[C@@H]2C[C@@]2(C)[C@@H](CC[C@@]24CCC(=O)O4)[C@H]13 [EPLERENONE]

System: not listed separately
Assay: Oral bioavailability in Sprague-Dawley rat at 2 mg/kg
Type: ADME, organism-based
Details: in vivo

bioavailability | Structure (SMILES)
57% | COc1cc(C2=NN(c3ccc(C#N)c(Cl)c3)[C@@H](C3CCCC3)C2)ccc1C(=O)O

System: not listed separately
Assay: Half life in Sprague-Dawley rat at 2 mg/kg, iv
Type: ADME, organism-based
Design: dose 2 mg/kg, route intravenous
Details: in vivo

half-life | Structure (SMILES)
1.9 h | COc1cc(C2=NN(c3ccc(C#N)c(Cl)c3)[C@@H](C3CCCC3)C2)ccc1C(=O)O

Biological target: T2, Mineralocorticoid receptor (Homo sapiens, UniProt P08235);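 further: antagonism at Gal4-fused mineralocorticoid receptor in human Huh7 cells, measured by luciferase reporter gene read-out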
T2 sequence (P08235 whole entry): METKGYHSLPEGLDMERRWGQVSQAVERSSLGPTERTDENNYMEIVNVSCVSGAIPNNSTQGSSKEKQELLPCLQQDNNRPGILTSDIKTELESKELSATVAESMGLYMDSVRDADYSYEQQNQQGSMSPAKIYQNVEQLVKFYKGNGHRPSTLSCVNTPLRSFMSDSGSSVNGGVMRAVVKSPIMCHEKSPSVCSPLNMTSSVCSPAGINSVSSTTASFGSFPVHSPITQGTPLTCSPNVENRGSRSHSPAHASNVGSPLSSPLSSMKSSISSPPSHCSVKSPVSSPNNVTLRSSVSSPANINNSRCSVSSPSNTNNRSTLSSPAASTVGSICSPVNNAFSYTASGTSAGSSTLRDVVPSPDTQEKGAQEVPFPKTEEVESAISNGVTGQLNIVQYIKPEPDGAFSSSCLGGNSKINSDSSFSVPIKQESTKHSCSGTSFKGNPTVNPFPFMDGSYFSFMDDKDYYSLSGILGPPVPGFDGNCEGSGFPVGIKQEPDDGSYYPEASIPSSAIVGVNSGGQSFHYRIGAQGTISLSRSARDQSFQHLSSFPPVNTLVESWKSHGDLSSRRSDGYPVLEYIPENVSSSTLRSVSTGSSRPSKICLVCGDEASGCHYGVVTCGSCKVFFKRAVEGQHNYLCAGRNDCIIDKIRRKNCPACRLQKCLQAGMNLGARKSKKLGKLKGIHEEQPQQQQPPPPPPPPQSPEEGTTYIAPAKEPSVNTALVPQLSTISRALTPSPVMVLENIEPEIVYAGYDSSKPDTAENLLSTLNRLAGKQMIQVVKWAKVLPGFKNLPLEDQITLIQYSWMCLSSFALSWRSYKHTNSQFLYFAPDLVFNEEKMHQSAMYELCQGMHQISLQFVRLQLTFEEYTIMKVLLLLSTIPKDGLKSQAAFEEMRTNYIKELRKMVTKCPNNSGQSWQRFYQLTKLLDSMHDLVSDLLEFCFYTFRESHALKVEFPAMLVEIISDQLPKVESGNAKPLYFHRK
Type: functional, cell-based, Huh-7
Details: not given

Structure (SMILES) | IC50
N#Cc1ccc(N2N=C(c3ccc(C(=O)O)cc3)C[C@H]2c2ccc(F)cc2)cc1 | 8.36 µM
COCc1cc(N2N=C3c4ccc(C(=O)O)cc4CC[C@@H]3[C@@H]2C2CCCC2)ccc1C#N | 0.15 µM
N#Cc1ccc(N2N=C(c3ccc4[nH]c(=O)oc4c3)C[C@H]2c2ccc(F)cc2)cc1 | 2.08 µM
N#Cc1ccc(N2N=C3c4ccc(C(=O)O)cc4CC[C@@H]3[C@@H]2C2CCCO2)cc1Cl (mixture of isomers) | 0.72 µM
N#Cc1ccc(N2N=C3c4ccc(C(=O)O)cc4CC[C@@H]3[C@@H]2C2C=CC=CO2)cc1Cl (mixture of isomers) | 0.127 µM
COc1ccc(N2N=C(c3ccc(C(=O)O)cc3)CC2c2ccc(F)cc2)cc1 (racemic) | 1.44 µM
N#Cc1ccc(N2N=C(c3ccc(C(=O)O)cc3)CC2c2ccc(F)cc2)cc1F (racemic) | 0.243 µM
N#Cc1ccc(N2N=C(c3ccc(C(=O)O)cc3)CC2c2ccc(F)cc2)c(Cl)c1 (racemic) | 0.284 µM
Cc1cc(N2N=C(c3ccc(C(=O)O)cc3)CC2c2ccc(F)cc2)ccc1C#N (racemic) | 0.056 µM
N#Cc1ccc(N2N=C(c3ccc(C(=O)O)cc3)CC2c2ccc(F)cc2)cc1C(F)(F)F (racemic) | 0.127 µM
N#Cc1ccc(N2N=C(c3ccc(C(=O)O)cc3)CC2c2ccc(F)cc2)cc1C#N (racemic) | > 1 µM
N#Cc1ccc(N2N=C(c3ccc(C(=O)O)cc3)CC2c2ccncc2)cc1 (racemic) | > 10 µM
N#Cc1ccc(N2N=C(c3ccc(C(=O)O)cc3)CC2c2cccnc2)cc1 (racemic) | > 10 µM
N#Cc1ccc(N2N=C(c3ccc(C(=O)O)cc3)CC2c2ccco2)cc1 (racemic) | 0.41 µM
N#Cc1ccc(N2N=C(c3ccc(C(=O)O)cc3)CC2Cc2ccccc2)cc1 (racemic) | 3.65 µM
COc1cccc(C2CC(c3ccc(C(=O)O)cc3)=NN2c2ccc(C#N)cc2)c1 (racemic) | 1.59 µM
N#Cc1ccc(N2N=C(c3ccc(C(=O)O)cc3)CC2C2CCCC2)cc1 (racemic) | 0.151 µM
CC(C)C1CC(c2ccc(C(=O)O)cc2)=NN1c1ccc(C#N)c(Cl)c1 (racemic) | 0.383 µM
N#Cc1ccc(N2N=C(c3ccc(C(=O)O)cc3)CC2C2CCCC2)cc1Cl (racemic) | 0.054 µM
N#Cc1ccc(N2N=C3c4ccc(C(=O)O)cc4C[C@@H]3[C@@H]2c2ccc(F)cc2)cc1 (racemic) | 4.34 µM
N#Cc1ccc(N2N=C3c4ccc(C(=O)O)cc4CC[C@H]3[C@H]2c2ccc(F)cc2)cc1Cl (racemic) | 0.223 µM
N#Cc1ccc(N2N=C3c4ccc(C(=O)O)cc4CC[C@@H]3[C@@H]2C2CCC2)cc1Cl (racemic) | 0.021 µM
N#Cc1ccc(N2N=C3c4ccc(C(=O)O)cc4CC[C@@H]3[C@@H]2C2CCCC2)cc1O (racemic) | > 0.5 µM
Cc1cc(N2N=C3c4ccc(C(=O)O)cc4CO[C@H]3[C@H]2C2CCCC2)ccc1C#N (racemic) | 0.039 µM
CN(C)CCN(C)C(=O)c1ccc(C2=NN(c3ccc(C#N)cc3)C(c3ccc(F)cc3)C2)cc1 (racemic) | 0.083 µM
COc1cc(C2=NN(c3ccc(C#N)c(Cl)c3)[C@@H](C3CCCC3)C2C)ccc1C(=O)O (single isomer, unassigned) | 0.069 µM

More lines, now with the values ahead:

IC50 | Structure (SMILES)
0.101 µM | N#Cc1ccc(N2N=C(c3ccc(C(=O)O)cc3)C[C@@H]2c2ccc(F)cc2)cc1
0.052 µM | N#Cc1ccc(N2N=C(c3ccc(C(=O)O)c(F)c3)C[C@@H]2C2CCCC2)cc1Cl
0.026 µM | N#Cc1ccc(N2N=C(c3ccc(C(=O)O)c(Cl)c3)C[C@@H]2C2CCCC2)cc1Cl
0.002 µM | COc1cc(C(=O)O)ccc1C1=NN(c2ccc(C#N)c(Cl)c2)[C@@H](C2CCCC2)C1
0.013 µM | N#Cc1ccc(N2N=C(c3ccc(C(=O)O)c(OCCCO)c3)C[C@@H]2C2CCCC2)cc1Cl
0.08 µM | N#Cc1ccc(N2N=C(c3ccc(C(=O)O)c(OC(F)(F)F)c3)C[C@@H]2C2CCCC2)cc1Cl
0.135 µM | N#Cc1ccc(N2N=C(c3ccc(CC(=O)O)cc3)C[C@@H]2C2CCCC2)cc1Cl
0.041 µM | N#Cc1ccc(N2N=C(c3ccc4[nH]c(=O)oc4c3)C[C@@H]2c2ccc(F)cc2)cc1
0.032 µM | Cc1nc(C)c(C2=NN(c3ccc(C#N)cc3)[C@@H](c3ccc(F)cc3)C2)s1
9.73 µM | O=C(O)c1ccc(C2=NN(c3ccccc3)C(c3ccc(F)cc3)C2)cc1 (racemic)
0.18 µM | CCOC(=O)c1ccc(N2N=C(c3ccc(C(=O)O)cc3)CC2c2ccc(F)cc2)cc1 (racemic)
> 10 µM | O=C(O)c1ccc(C2=NN(c3ccc(C(=O)O)cc3)C(c3ccc(F)cc3)C2)cc1 (racemic)
0.535 µM | N#Cc1ccc(N2N=C(c3ccc(C(=O)O)cc3)CC2c2ccc(F)cc2)c(F)c1 (racemic)
0.056 µM | N#Cc1ccc(N2N=C(c3ccc(C(=O)O)cc3)CC2c2ccc(F)cc2)cc1Cl (racemic)
> 10 µM | N#Cc1ccc(N2N=C(c3ccc(C(=O)O)cc3)CC2c2ccccn2)cc1 (racemic)
0.763 µM | N#Cc1ccc(N2N=C(c3ccc(C(=O)O)cc3)CC2c2cccs2)cc1 (racemic)

IC50 | Structure (SMILES)
0.441 µM | N#Cc1ccc(N2N=C(c3ccc(C(=O)O)cc3)CC2c2cccc(F)c2)cc1 (racemic)
1.29 µM | N#Cc1ccc(N2N=C(c3ccc(C(=O)O)cc3)CC2C2CCCCC2)cc1 (racemic)
2.53 µM | CC(C)CC1CC(c2ccc(C(=O)O)cc2)=NN1c1ccc(C#N)cc1 (racemic)
0.553 µM | N#Cc1ccc(N2N=C3c4ccc(C(=O)O)cc4CC[C@@H]3[C@@H]2c2ccc(F)cc2)cc1 (racemic)
0.015 µM | N#Cc1ccc(N2N=C3c4ccc(C(=O)O)cc4CC[C@@H]3[C@@H]2C2CC=CC2)cc1Cl (racemic)
0.004 µM | Cc1cc(N2N=C3c4ccc(C(=O)O)cc4CC[C@@H]3[C@@H]2C2CCCC2)ccc1C#N (racemic)
0.007 µM | COc1cc(N2N=C3c4ccc(C(=O)O)cc4CC[C@@H]3[C@@H]2C2CCCC2)ccc1C#N (racemic)
0.488 µM | N#Cc1ccc(N2N=C3c4ccc(C(=O)O)cc4CC[C@@H]3[C@@H]2C2CCCC2)cc1OCc1ccccc1 (racemic)
0.849 µM | N#Cc1ccc(N2N=C3c4ccc(C(=O)O)cc4CO[C@@H]3[C@@H]2c2ccc(F)cc2)cc1Cl (racemic)
0.46 µM | O=[N+]([O-])c1ccc(N2N=C(c3ccc(O)cc3)CC2c2ccc(F)cc2)cc1 (racemic)
0.058 µM | N#Cc1ccc(N2N=C(c3ccc4[nH]c(=O)oc4c3)CC2c2ccc(F)cc2)cc1 (racemic)
> 10 µM | N#Cc1ccc(N2N=C(c3ccc4[nH]c(=O)oc4c3)CC2c2ccc(C(=O)O)cc2)cc1 (racemic)
0.784 µM | O=C(O)c1ccc(N2N=C(c3ccc4[nH]c(=O)oc4c3)CC2c2ccc(F)cc2)cc1 (racemic)
0.246 µM | N#Cc1ccc(N2N=C(c3ccc(C(=O)O)cc3)CC2c2ccc(F)cc2)cc1 (racemic)
0.065 µM | N#Cc1ccc(N2N=C3c4ccc(C(=O)O)cc4CO[C@@H]3[C@@H]2C2CCCC2)cc1Cl (stereo in doubt)
0.146 µM | N#Cc1ccc(N2N=C3c4ccc(C(=O)O)cc4CO[C@H]3[C@H]2C2CCCC2)cc1Cl (stereo in doubt)

System: not listed separately
Assay: Clearance in Sprague-Dawley rat at 2 mg/kg, iv
Type: ADME, organism-based
Design: dose 2 mg/kg, route intravenous
Details: in vivo

clearance | Structure (SMILES)
24 mL/min/kg | COc1cc(C2=NN(c3ccc(C#N)c(Cl)c3)[C@@H](C3CCCC3)C2)ccc1C(=O)O

Biological target: Voltage-gated inwardly rectifying potassium channel KCNH2 (Homo sapiens, UniProt Q12809)
Details: not given

Sequence of Voltage-gated inwardly rectifying potassium channel KCNH2 (Q12809 whole entry): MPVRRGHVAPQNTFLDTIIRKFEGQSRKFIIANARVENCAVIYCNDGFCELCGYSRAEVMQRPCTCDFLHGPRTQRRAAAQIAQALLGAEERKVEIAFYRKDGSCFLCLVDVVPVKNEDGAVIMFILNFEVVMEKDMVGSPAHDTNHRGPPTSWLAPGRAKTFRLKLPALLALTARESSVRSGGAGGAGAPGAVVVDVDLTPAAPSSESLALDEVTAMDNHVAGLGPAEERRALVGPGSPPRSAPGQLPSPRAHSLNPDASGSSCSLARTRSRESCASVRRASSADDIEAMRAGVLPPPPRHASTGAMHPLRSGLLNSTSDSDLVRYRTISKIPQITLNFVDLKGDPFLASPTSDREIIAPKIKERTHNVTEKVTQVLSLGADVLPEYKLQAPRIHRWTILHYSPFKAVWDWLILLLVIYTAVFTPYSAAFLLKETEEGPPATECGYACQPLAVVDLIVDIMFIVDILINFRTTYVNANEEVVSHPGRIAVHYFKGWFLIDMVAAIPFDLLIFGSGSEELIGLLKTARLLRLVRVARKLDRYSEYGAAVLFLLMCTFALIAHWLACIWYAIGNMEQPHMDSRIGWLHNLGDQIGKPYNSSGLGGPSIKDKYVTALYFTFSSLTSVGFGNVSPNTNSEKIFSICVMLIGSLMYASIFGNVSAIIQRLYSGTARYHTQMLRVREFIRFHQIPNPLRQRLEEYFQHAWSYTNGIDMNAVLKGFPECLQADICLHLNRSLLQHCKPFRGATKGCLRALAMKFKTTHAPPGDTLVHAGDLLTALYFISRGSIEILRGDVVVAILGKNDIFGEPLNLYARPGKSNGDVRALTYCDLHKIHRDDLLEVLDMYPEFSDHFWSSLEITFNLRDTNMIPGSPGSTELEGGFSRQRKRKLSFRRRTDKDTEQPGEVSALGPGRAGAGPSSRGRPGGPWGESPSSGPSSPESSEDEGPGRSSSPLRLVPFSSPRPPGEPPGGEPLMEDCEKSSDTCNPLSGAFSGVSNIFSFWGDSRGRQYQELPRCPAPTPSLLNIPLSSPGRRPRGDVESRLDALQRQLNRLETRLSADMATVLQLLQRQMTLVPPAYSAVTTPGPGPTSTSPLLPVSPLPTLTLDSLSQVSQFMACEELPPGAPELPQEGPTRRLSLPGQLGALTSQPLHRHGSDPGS

Structure (SMILES) | IC50
N#Cc1ccc(N2N=C(c3ccc4[nH]c(=O)oc4c3)C[C@@H]2c2ccc(F)cc2)cc1 | 0.029 µM
CN(C)CCN(C)C(=O)c1ccc(C2=NN(c3ccc(C#N)cc3)C(c3ccc(F)cc3)C2)cc1 (racemic) | 0.17 µM
N#Cc1ccc(N2N=C(c3ccc4[nH]c(=O)oc4c3)CC2c2ccc(C(=O)O)cc2)cc1 (racemic) | > 30 µM
O=C(O)c1ccc(N2N=C(c3ccc4[nH]c(=O)oc4c3)CC2c2ccc(F)cc2)cc1 (racemic) | > 30 µM
N#Cc1ccc(N2N=C(c3ccc(C(=O)O)cc3)CC2c2ccc(F)cc2)cc1 (racemic) | > 30 µM

System: not listed separately
Assay: Volume of distribution at steady state in Sprague-Dawley rat at 2 mg/kg, iv
Type: ADME, organism-based
Design: dose 2 mg/kg, route intravenous
Details: in vivo, read-out: Vdss

Vd | Structure (SMILES)
3.9 L/kg | COc1cc(C2=NN(c3ccc(C#N)c(Cl)c3)[C@@H](C3CCCC3)C2)ccc1C(=O)O
